Earlier results in paper PMC3057427 (ACS combinatorial science, 2011).

SMILES | efficacy in anti-Parkinsonian animal models
COc1cc(NC(=O)c2ccccn2)ccc1Cl [Compound 6] | display efficacy
O=C(Nc1cc(Cl)cc(Cl)c1)[C@H]1CCCC[C@H]1C(=O)O [Compound 2] | display efficacy
